Results from PubChem BioAssay AID504322 (Emory University Molecular Libraries Screening Center, 2011).
Calls of active or inactive are those of the source. The rule behind the calls is not given here.

Test system: CHOP reporter cell assay, percent of control
Assay: CHOP reporter inhibitor potency, dose response, cell-based (AID 504322);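 note: CHO cells carrying a CHOP reporter stimulated with tunicamycin to induce ER stress; potency is for inhibition of the stress-induced reporter signal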

Structure (SMILES) | IC50
COc1ccc(CCN2C(=O)c3[nH]nc(-c4ccccc4O)c3C2c2cccc(Cl)c2)cc1 (stereo not drawn) | > 10 µM (inactive)
CCN=C1NN=C(c2cc(C)n(Cc3ccco3)c2C)CS1 | < 0.16 µM
CCOC(=O)c1cc([N+](=O)[O-])c([N+](=O)[O-])cc1NC(C)=O | 4.24 µM
O=S1(=O)C=C(Sc2nc3ccccc3s2)c2ccccc21 | 1.26 µM
CC(C)(C)c1ccc(C2CC2C(=O)N/N=C\c2ccc[nH]2)cc1 (stereo not drawn) | 4.18 µM (inactive)
OC(CNCC(c1ccc(Cl)cc1Cl)c1c[nH]c2ccccc12)c1ccccc1 (stereo not drawn) | 1.79 µM
CCCC(=O)N1CCN(c2ccc(NC(=O)c3cc4ccccc4o3)cc2Cl)CC1 | 5.4 µM (inactive)
CC(C)(C)c1ccc(-c2n[nH]c(=S)n2C2CCCC2)cc1 | 7.55 µM (inactive)
Cc1[nH]n(-c2ccccc2)c(=O)c1/C=C1/C=c2ccccc2=N1 | 9.74 µM (inactive)
CC(=O)C(C(C)=O)c1c(Cl)c(O)c(O)c2c(C(=O)c3ccccc3)coc12 | 5.67 µM (inactive)
COc1ccc(CC(=O)Nc2cccc(-c3nnc(-c4cccc(C)c4)o3)c2)cc1OC | 5.17 µM (inactive)
O=C(OCn1ncc(Br)c(Br)c1=O)c1ccccc1Cl | 2.84 µM
Cc1ccc2c(C)nc(Nc3nc(CSc4nc5ccccc5[nH]4)cc(=O)[nH]3)nc2c1 | 3.8 µM (inactive)
O=C(Nc1ccc(S(=O)(=O)N2CCOCC2)cc1)c1ccc(CN2CCc3ccccc3C2)cc1 | < 0.16 µM
Nc1ccc(N2CCCCCC2)cc1 | > 10 µM (inactive)
C=C(C)COc1ccc(-c2n[nH]c(C)c2-c2ccccc2OC)c(O)c1 | > 10 µM (inactive)
C/C=C(\C)C(=O)OC1C(C)=C2C(C1OC(=O)CCCCC)C(C)(OC(C)=O)CC(OC(=O)CCC)C1(O)C2OC(=O)C1(C)O (stereo not drawn) | < 0.16 µM
O=C(OCn1ncc(Cl)c(Cl)c1=O)c1ccc(F)cc1 | 3.35 µM
CCN1C/C(=C/c2ccc(OC)c(O)c2)C(=O)/C(=C/c2ccc(OC)c(O)c2)C1 | 5.33 µM (inactive)
CCCOc1ccccc1C1CC(=O)NC(C)=C1C(=O)OCC(C)C (stereo not drawn) | 5.14 µM (inactive)
COC(=O)[C@]12OC[C@]34C([C@@H](O)[C@@H]1O)[C@]1(C)CC(=O)C(O)=C(C)[C@@H]1C[C@H]3OC(=O)[C@H](O)[C@@H]24 (stereo partly drawn) | < 0.16 µM
O=C(COc1ccc(Cl)cc1Cl)Nc1ccccn1 | 2.43 µM
CCCOC(=O)c1ccc(Oc2cn[nH]c2-c2ccc(OC)cc2O)cc1 | 9.32 µM (inactive)
Nc1nc(-c2ccccc2)c(N=Nc2ccccc2Cl)s1 | 8.65 µM (inactive)
CCc1ccc(C(=O)/C=C/c2ccc([N+](=O)[O-])o2)cc1 | 9.75 µM (inactive)

Structure (SMILES) | IC50
N=C(N)c1c(O)n(C2CCCCC2)c(=O)n(C2CCCCC2)c1=O | 2.77 µM
NC(=O)CC(NC(=O)Cc1cccc2ccccc12)c1ccc(NCc2ccc(F)cc2)c([N+](=O)[O-])c1 (stereo not drawn) | > 10 µM (inactive)
Oc1cccc(-c2nc3c4c(ncn3n2)-c2ccccc2CC42CCCC2)c1 | 5.25 µM (inactive)
O=C1c2ccccc2C(=O)C1c1nccc2ccccc12 | 5.41 µM (inactive)
Cc1cccc(N2CCN(C(=O)c3c(C)nn(Cc4ccccc4Cl)c3C)CC2)c1C | 9.26 µM (inactive)
CCOc1ccc(C2=C/C(=C/c3cccnc3)C(=O)O2)cc1 | 9.39 µM (inactive)
N#C/C(=C\c1ccc([N+](=O)[O-])o1)c1nc2ccccc2[nH]1 | 2.74 µM
CCOc1cc(/C=N/NC(=O)Cc2ccc(C(F)(F)F)cc2[N+](=O)[O-])c(Br)cc1OC | 4.6 µM
Cc1ccc(-n2c(Cl)c(Cl)nc(Cl)c2=O)cc1 | 1.04 µM
CC(C)Cn1c(=O)[nH]c(=O)c2c(C(F)(F)F)cc(-c3ccccc3)nc21 | > 10 µM (inactive)
Nc1nnnn1/N=C/C(Br)=C/c1ccccc1 | 9.72 µM (inactive)
Cc1cccc(Nc2nc(N)c([N+](=O)[O-])c(N3CC(C)CC(C)C3)n2)c1 (stereo not drawn) | > 10 µM (inactive)
CC(C)NC(=O)c1ccccc1NC(=O)/C=C/c1cccc([N+](=O)[O-])c1 | 5.83 µM (inactive)
CC[C@@H]1CC=C[C@H]2[C@H]1C(=O)N(Cc1ccccc1)[C@H]2c1ccoc1 | 9.62 µM (inactive)
O=C1c2[nH]nc(-c3ccccc3O)c2C(c2cccc(Cl)c2)N1Cc1ccco1 (stereo not drawn) | 9.62 µM (inactive)
CC1(c2ccccc2)CC(C)(C)N2C(=O)/C(=C3\SC(=S)NC3=O)c3cccc1c32 (stereo not drawn) | 6.98 µM (inactive)
COc1ccccc1-c1cc(C(F)(F)F)nc(S(=O)(=O)CCCC(=O)NC(C)C)n1 | 9.35 µM (inactive)
CCN1/C(=C/C=C/C=C/c2sc3ccccc3[n+]2CC)Sc2ccccc21 | 0.87 µM (inactive)
Cc1ccc(Cl)cc1NC1=C/C(=N\S(=O)(=O)c2cccs2)c2ccccc2C1=O | 3.94 µM
CCCc1cc(C(=O)Cc2ccc(F)cc2)c(O)cc1O | 5.98 µM (inactive)
CC1(c2ccccc2)CC(C)(C)n2c(O)c(C3=NC(=S)NC3=O)c3cccc1c32 (stereo not drawn) | 9.76 µM (inactive)
CCN1/C(=C\C=C\C2=[N+](CC)c3ccccc3C2(C)C)C(C)(C)c2ccccc21 | 0.32 µM (inactive)
Cc1ccc(-c2nc(C(Cl)Cl)c3ccccc3n2)cc1 | 2.08 µM
COc1ccc(NC(=O)c2cc3cccc(OC)c3oc2=Nc2ccc(C(=O)O)cc2)cc1OC | 5.28 µM (inactive)
CCCCC(CC)C(=O)Oc1ccc(O)c(C(C)(C)C)c1 (stereo not drawn) | 2.37 µM (inactive)

Structure (SMILES) | IC50
CC(C)(C)OC(=O)NCCc1nnc(S(=O)(=O)Cc2ccc(Cl)cc2Cl)o1 | > 10 µM (inactive)
Cc1nn(-c2ccc(C(F)(F)F)cn2)c(C)c1Oc1ccccc1O | 5.94 µM (inactive)
CCOc1cc(C(=O)CSc2nnc(CNc3ccc(Cl)cc3)o2)ccc1NC(=O)CC | 9.47 µM (inactive)
CCOc1ccc(-c2cc(CCCC(=O)NCc3ccc(C)cc3)no2)cc1 | 5.91 µM (inactive)
O=C1CC(c2ccco2)CC(O)=C1C=Nc1ccccc1-c1ccccc1 (stereo not drawn) | 2.84 µM (inactive)
COc1ccc(CCNC(=O)c2nnn(-c3ccc4c(c3)OCCO4)c2N)cc1OC | 0.69 µM
O=[N+]([O-])c1c(NCCCO)cc(Sc2nc3ccccc3s2)c2nonc12 | > 10 µM (inactive)
Cc1nc(COC(=O)c2cc(O)c3ccccc3c2O)cs1 | > 10 µM (inactive)
O=S1(=O)C=C(Sc2nnc(-c3ccccc3)o2)c2ccccc21 | 4.34 µM
CN1C(=O)/C(=C/c2cc(N=Nc3ccccc3)ccc2O)SC1=S | 4.49 µM (inactive)
COc1cc(C(=O)OC(C)C(=O)NCC2CCCCC2)cc(NC(=O)c2ccco2)c1OC (stereo not drawn) | > 10 µM (inactive)
CC1=C(C)/C(=N\OS(=O)(=O)c2ccccc2)C=CC1=O | 2.13 µM
COc1ccc(-c2[nH]ncc2/C=C(/C#N)C(=O)NC2CCCCCC2)cc1 | 9.23 µM (inactive)
CC1=C/C(=N\OS(=O)(=O)c2ccccc2)C(C)=CC1=O | 0.9 µM
Oc1ccc(N=Nc2cccc(C(F)(F)F)c2)cc1C=Nc1ccc(N2CCOCC2)cc1 | 6.97 µM (inactive)
CN(C)CCCn1c(SCC(=O)Nc2nc(-c3cccc(Br)c3)cs2)nc2ccccc2c1=O | 9.51 µM (inactive)
Cc1ccc(NC(=O)C(=O)NCC2OCCc3ccccc32)cc1 (stereo not drawn) | 8.99 µM (inactive)
CCC1CCCCN1S(=O)(=O)c1ccc(C(=O)Nc2nnc(-c3ccccc3Cl)o2)cc1 (stereo not drawn) | 9.92 µM (inactive)
O=C(Nc1ccc([N+](=O)[O-])cc1)Nc1ccc(OC(F)F)c(Cl)c1 | 6.4 µM (inactive)
Cc1cccc(NC2=C/C(=N/S(=O)(=O)c3cccs3)c3ccccc3C2=O)c1 | 4.44 µM
O=S(=O)(Nc1cccc2c1CCCC2)c1cccc(C(F)(F)F)c1 | 9.51 µM (inactive)
CCC1(c2ccc(F)cc2)NC(=O)N(CC(=O)Nc2ccc(-c3nc4ccc(C)cc4s3)cc2)C1=O (stereo not drawn) | 1.54 µM
O=C(On1c(-c2ccccc2)nc2ccccc2c1=O)c1ccco1 | > 10 µM (inactive)
Cc1ccc(NC(=O)CCl)cc1S(=O)(=O)N1CCCCCC1 | > 10 µM (inactive)
CC1CCC(C(C)C)C(OC(=O)COC(=O)c2cc(O)ccc2N)C1 (stereo not drawn) | 4.09 µM (inactive)

Structure (SMILES) | IC50
O=C(Nc1cccc(-c2nc3ncccc3o2)c1)c1sc2ccccc2c1Cl | 2.47 µM
NS(=O)(=O)c1ccc(N/N=C2/CCCCC2C2CCCCC2)c([N+](=O)[O-])c1 (stereo not drawn) | 5.37 µM (inactive)
CC(C)(C)c1ccc(CN2N=Nc3ccccc3S2(=O)=O)cc1 | 9.3 µM (inactive)
Cc1cc2c(cc1C)CSC(c1c(O)ccc3ccccc13)SC2 | > 10 µM (inactive)
O=C(/C=C/Sc1ncn[nH]1)c1ccc(Cl)cc1 | > 10 µM (inactive)
C=CCOC(=O)C1=C(C)NC(C)=C(C(=O)OCC=C)C1/C=C/c1ccccc1 | 5.02 µM (inactive)
CCOC(=O)c1c(C)[nH]c2c1-c1ccccc1C(=O)C2=O | 2.38 µM
O=C(ONc1ccc(N=NC(=O)c2ccccc2O)cc1)c1ccccc1 | > 10 µM (inactive)
COc1ccc(/C=C2/SC(=S)N(CCCC(=O)Nc3ccc(O)cc3)C2=O)cc1 | 0.25 µM
CCCCCCCC(=O)N/N=C/c1ccc(Br)cc1 | 3.51 µM
Cc1ccc(C(C(=O)NC2CCCCC2)N(C(=O)Cc2c[nH]c3ccccc23)c2ccccc2C)o1 (stereo not drawn) | > 10 µM (inactive)
Cc1ccc(C2CN(C)C3(C(=O)Nc4ccccc43)C23COc2ccccc2C3=O)cc1 (stereo not drawn) | > 10 µM (inactive)
COc1cc2c(cc1OC)C(c1ccccc1)N(C(=O)CCl)CC2 (stereo not drawn) | 9.53 µM (inactive)
O=C(OCC(F)(F)F)c1cccc(COc2ccc3ccccc3c2)c1 | 1.26 µM
O=C1CC(c2ccccc2)CC(O)=C1C=Nc1cccc(Cl)c1 (stereo not drawn) | 5.16 µM
C=C1C(=O)O[C@@H]2C[C@@H](C)[C@@H]3C=CC(=O)[C@@]3(C)[C@@H](OC(C)=O)[C@H]12 | 2.48 µM
Nc1cc(Cl)c2nonc2c1[N+](=O)[O-] | 5.89 µM (inactive)
O=C(Nc1ccc(Cl)cc1)Nc1ccc(N2CCCC2)c(S(=O)(=O)Nc2ccccc2Cl)c1 | 5.95 µM (inactive)
CC(CNC(=S)Nc1cc(F)cc(F)c1)CSc1ccc(Cl)cc1 (stereo not drawn) | > 10 µM (inactive)
CCCCCCN=C(CC)c1c(O)n(CCCC)c(=O)[nH]c1=O | 7.59 µM (inactive)
CC(C)c1nnc(N2C(=O)c3oc4ccccc4c(=O)c3C2c2ccco2)s1 (stereo not drawn) | > 10 µM (inactive)
CCOC(=O)C1=C(C)NC(C)=C(C(=O)OCC)C1/C=C/c1ccccc1 | > 10 µM (inactive)
CCOc1cc(S(=O)(=O)Nc2ccccc2CC)ccc1Cl | 7 µM (inactive)
